For experiment [1], the system named is MDA-MB-231. The experiment is described as follows: Antiproliferative activity against human MDA-MB-231 cells assessed as inhibition of cell proliferation incubated for 72 hrs by MTT assay. It counts as functional, cell-based. Conditions: MDA-MB-231, 72 h. A general note: Tetrazolium assays rely on reduction of a dye to a coloured formazan, in cell work by metabolically active cells.

Experiment [2] deals with MDA-MB-231. The experiment is described as follows: Antiproliferative activity against human MDA-MB-231 cells assessed as inhibition of cell proliferation incubated for 72 hrs in presence of 4-((8-hydroxyoctyl)oxy)-3-(phenylsulfonyl)-1,2,5-oxadiazole 2-oxide by MTT assay. In kind it is functional, cell-based. Conditions: MDA-MB-231, 72 h.
The subject of experiment [3] is MDA-MB-231. The experiment is described as follows: Antiproliferative activity against human MDA-MB-231 cells assessed as inhibition of cell proliferation incubated for 72 hrs in presence of 2-(4-((5-chloro-4-((2-(methylcarbamoyl)phenyl)amino)pyrimidin-2-yl)amino)phenyl)acetic acid by MTT assay. In kind it is functional, cell-based. Conditions: MDA-MB-231, 72 h.
For experiment [4], the system named is MDA-MB-231. The experiment is described as follows: Induction of NO production in human MDA-MB-231 cells at 4 uM incubated for 72 hrs by DAF-FM-DA dye based flow cytometry analysis. It counts as functional, cell-based.
Experiment [5] has as its system MDA-MB-231. The experiment is described as follows: Antiproliferative activity against human MDA-MB-231 cells assessed as inhibition of cell proliferation at 5 uM incubated for 72 hrs by MTT assay relative to control. In kind it is functional.
Experiment [6] deals with MDA-MB-157. The experiment is described as follows: Antiproliferative activity against human MDA-MB-157 cells assessed as inhibition of cell proliferation incubated for 72 hrs by MTT assay. In kind it is functional, cell-based. Conditions: MDA-MB-157, 72 h.
For experiment [7], the target named is Focal adhesion kinase 1 (Homo sapiens, UniProt Q05397). The experiment is described as follows: Inhibition of FAK (unknown origin).
Experiment [8] has as its system MDA-MB-453. The experiment is described as follows: Antiproliferative activity against human MDA-MB-453 cells assessed as inhibition of cell proliferation incubated for 72 hrs by MTT assay. In kind it is functional, cell-based. Conditions: MDA-MB-453, 72 h.

Each structure is given as a SMILES string. Calls of active or inactive are those of the source. No cut-off for these calls is given here.

Our source for the IC50, Activity and inhibition values is ChEMBL document CHEMBL5385886, “Design, synthesis and evaluation of nitric oxide releasing derivatives of 2,4-diaminopyrimidine as novel FAK inhibitors for intervention of metastatic triple-negative breast cancer” (Eur J Med Chem, 2023).

Chain of Focal adhesion kinase 1 (Q05397 whole entry): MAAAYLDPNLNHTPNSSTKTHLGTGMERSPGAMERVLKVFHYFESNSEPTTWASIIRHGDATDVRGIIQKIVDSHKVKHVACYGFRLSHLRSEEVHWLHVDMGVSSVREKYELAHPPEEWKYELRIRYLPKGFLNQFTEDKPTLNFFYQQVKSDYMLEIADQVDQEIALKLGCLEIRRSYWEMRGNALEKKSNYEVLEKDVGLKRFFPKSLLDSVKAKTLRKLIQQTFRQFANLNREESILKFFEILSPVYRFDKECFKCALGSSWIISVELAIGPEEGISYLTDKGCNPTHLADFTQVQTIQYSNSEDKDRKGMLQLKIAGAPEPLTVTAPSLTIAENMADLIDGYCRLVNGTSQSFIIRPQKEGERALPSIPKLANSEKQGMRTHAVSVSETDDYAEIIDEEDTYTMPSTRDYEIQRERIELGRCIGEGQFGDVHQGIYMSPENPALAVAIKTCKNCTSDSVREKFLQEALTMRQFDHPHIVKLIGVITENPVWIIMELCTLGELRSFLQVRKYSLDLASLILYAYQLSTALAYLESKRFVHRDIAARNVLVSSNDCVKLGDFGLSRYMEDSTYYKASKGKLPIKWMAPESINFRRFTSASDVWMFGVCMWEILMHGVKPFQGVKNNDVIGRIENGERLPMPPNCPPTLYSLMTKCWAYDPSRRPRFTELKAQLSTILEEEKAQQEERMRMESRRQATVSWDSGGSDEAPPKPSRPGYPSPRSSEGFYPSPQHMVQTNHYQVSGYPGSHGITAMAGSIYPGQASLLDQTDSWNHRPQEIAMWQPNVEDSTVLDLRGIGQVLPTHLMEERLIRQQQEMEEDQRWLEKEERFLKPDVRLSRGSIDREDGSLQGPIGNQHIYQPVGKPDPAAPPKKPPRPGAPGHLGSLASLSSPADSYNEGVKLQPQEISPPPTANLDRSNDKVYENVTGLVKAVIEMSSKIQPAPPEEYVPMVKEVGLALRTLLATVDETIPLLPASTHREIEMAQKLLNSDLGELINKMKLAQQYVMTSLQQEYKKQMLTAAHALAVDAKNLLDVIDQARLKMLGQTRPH

Turning to `CNC(=O)c1ccccc1Nc1nc(Nc2ccc(CC(=O)O)cc2)ncc1Cl`, the IC50 in experiment [1] was 1950 nM; in experiment [2], 1220 nM.

`O=S(=O)(c1ccccc1)c1c(OCCCCCCCCO)no[n+]1[O-]`: the IC50 worked out at 1220 nM in experiment [3] and 1500 nM in experiment [1].

As for `CNC(=O)c1ccccc1Nc1nc(Nc2ccc(CC(=O)OCCCCCCCOc3no[n+]([O-])c3S(=O)(=O)c3ccccc3)cc2)ncc1Cl`, the outcome in experiment [4] was Active. In experiment [5], the inhibition at 5 µM was above 92%. For the same compound, the IC50 in experiment [6] came to 188 nM; in experiment [7], 31.4 nM; in experiment [8] it was 246 nM; in experiment [1], 129 nM.

Regarding `CNC(=O)c1ccccc1Nc1nc(Nc2ccc(CC(=O)OCC(C)COc3no[n+]([O-])c3S(=O)(=O)c3ccccc3)cc2)ncc1Cl` (stereo unspecified), the outcome in experiment [4] was Active. Also, the inhibition at 5 µM in experiment [5] is above 92%. Further, the IC50 was 275 nM in experiment [6], 66 nM in experiment [7], 255 nM in experiment [8] and 225 nM in experiment [1].

For orientation: IC50 means the point on the concentration scale where inhibition reaches its midpoint. One may read the inhibition as the drop in the measured response relative to a control, in per cent.
